Source: patent publication US5817776A, “Amino acid analogs for tumor imaging” (priority 1996, dated 1998)

Key:
[1] = test system: metastatic lesions in the brain; conditions: cited from earlier work
[2] = test system: N-methyl-D-aspartic acid (NMDA) receptor, strychnine-insensitive glycine recognition site; conditions: cited from earlier work
several tumor types = conditions: labeled with carbon-14 or carbon-11, animals, Washburn et al. 1979; cited from earlier work
normal tissue = conditions: in vivo; cited from earlier work
implanted gliosarcoma = assay: in vivo; conditions: for Bone, Mean % Injected Dose/Gram: unfasted male fisher rats, average of 4 rats
Protocol: (§1) In vivo distribution of a compound of the invention, [^18 F]-1-amino-3-fluoro-cyclobutane-1-carboxylic acid (FACBC) was measured in rats having an implanted gliosarcoma. Accumulation in various tissue was measured at 5 min and 60 min post-administration.
(§2) Distribution of Radioactivity in Tissues of Unfasted Male
(§3) Fisher Rats following Intravenous Administration of [^18 F]FACBC

in vivo = conditions: rat, in vivo, iv, Mean % Injected Dose/Gram
Protocol: as §1, §2, §3

[3] = test system: human astrocyte tumor cells; assay: Binding to human astrocyte tumor cells in a human patient; assay type: in vivo
[4] = 60 min, intravenous, male fisher rats with implanted gliosarcoma

NC1(C(=O)O)CCC1 [ACBC, 1-aminocyclobutanecarboxylic acid]
substrate for protein synthesis in metastatic lesions; normal brain uptake (in words) [1]: selective substrate for protein synthesis in metastatic lesions in the brain with little observable uptake in normal brain tissue
NMDA receptor ligand and antagonist activity (in words) [2]: selective and potent ligand and antagonist
incorporation by tumors (in words) (several tumor types): incorporated preferentially by several tumor types in animals

CSCC[C@H](N)C(=O)O [[^11 C] methionine, methionine]
uptake in normal tissue (in words) (normal tissue): relatively high uptake in normal tissue

NC1(C(=O)O)CC([18F])C1 (stereo not shown) [[^18 F]FACBC, [^18 F]-1-amino-3-fluorocyclobutane-1-carboxylic acid]
T/B (tumor to brain ratio) (implanted gliosarcoma; 5 min, intravenous, male fisher rats with implanted gliosarcoma): 5.58
Bone, Mean % Injected Dose/Gram (implanted gliosarcoma; 5 min, intravenous): 0.52 % Injected Dose/Gram
T/B (tumor to brain ratio) (implanted gliosarcoma; [4]): 6.6
Tumor (T), Mean % Injected Dose/Gram (implanted gliosarcoma; [4]): 1.72 % Injected Dose/Gram
Bone, Mean % Injected Dose/Gram (implanted gliosarcoma; 60 min, intravenous): 0.38 % Injected Dose/Gram
T/B (tumor to brain ratio) (implanted gliosarcoma; rat, in vivo, iv): 6.61
stability to in vivo defluorination (bone uptake) (implanted gliosarcoma; rat, in vivo, iv): Uptake by bone was essentially constant over the 60 minutes of exposure, indicating stability of the 2-cyclobutyl group to significant in vivo defluorination
tumor uptake / tumor to brain discrimination (in words) (implanted gliosarcoma; rat, in vivo, iv): preferentially associated with tumor tissue as early as 5 minutes post administration
Brain (B), Mean % Injected Dose/Gram (implanted gliosarcoma; rat, in vivo, iv, 5 min): 0.11 % Injected Dose/Gram
Brain (B), Mean % Injected Dose/Gram (implanted gliosarcoma; rat, in vivo, iv, 1 h): 0.26 % Injected Dose/Gram
tissue uptake at 5 min (in vivo; Blood, 5 min, unfasted male fisher rats, average of 4 rats): 0.58 %ID/g
tissue uptake at 1 h (in vivo; Blood, 60 min, unfasted male fisher rats, average of 4 rats): 0.32 %ID/g
tissue uptake at 5 min (in vivo; Bone, 5 min, unfasted male fisher rats, average of 4 rats): 0.52 %ID/g
tissue uptake at 1 h (in vivo; Bone, 60 min, unfasted male fisher rats, average of 4 rats): 0.38 %ID/g
tissue uptake at 5 min (in vivo; Brain (B)): 0.11 %ID/g
tissue uptake at 1 h (in vivo; Brain (B)): 0.26 %ID/g
tissue uptake at 5 min (in vivo; Heart): 0.7 %ID/g
tissue uptake at 1 h (in vivo; Heart): 0.56 %ID/g
tissue uptake at 5 min (in vivo; Kidney): 1.08 %ID/g
tissue uptake at 1 h (in vivo; Kidney): 0.6 %ID/g
tissue uptake at 5 min (in vivo; Liver): 1.1 %ID/g
tissue uptake at 1 h (in vivo; Liver): 1.7 %ID/g
tissue uptake at 5 min (in vivo; Lung): 1.13 %ID/g
tissue uptake at 1 h (in vivo; Lung): 0.64 %ID/g
tissue uptake at 5 min (in vivo; Muscle): 0.27 %ID/g
tissue uptake at 1 h (in vivo; Muscle): 0.41 %ID/g
tissue uptake at 5 min (in vivo; Spleen): 1.55 %ID/g
tissue uptake at 1 h (in vivo; Spleen): 0.68 %ID/g
tissue uptake at 5 min (in vivo; Testis): 0.25 %ID/g
tissue uptake at 1 h (in vivo; Testis): 0.28 %ID/g
tissue uptake at 5 min (in vivo; Tumor (T), 5 min, male fisher rats with implanted gliosarcoma): 0.61 %ID/g
tissue uptake at 1 h (in vivo; Tumor (T), 60 min, male fisher rats with implanted gliosarcoma): 1.72 %ID/g
binding to human astrocyte tumor cells (in words) [3]: highly specific binding to human astrocyte tumor cells
